{
  "source": "patent US9169254B2",
  "about": "“Spiroimidazolone derivative” (Chugai Seiyaku Kabushiki Kaisha, priority 2009, dated 2015)",
  "data": [
    {"molecular_target": "T1, human PTH1 receptor (Homo sapiens, UniProt Q03431)", "T1 sequence (Q03431 27-593)": "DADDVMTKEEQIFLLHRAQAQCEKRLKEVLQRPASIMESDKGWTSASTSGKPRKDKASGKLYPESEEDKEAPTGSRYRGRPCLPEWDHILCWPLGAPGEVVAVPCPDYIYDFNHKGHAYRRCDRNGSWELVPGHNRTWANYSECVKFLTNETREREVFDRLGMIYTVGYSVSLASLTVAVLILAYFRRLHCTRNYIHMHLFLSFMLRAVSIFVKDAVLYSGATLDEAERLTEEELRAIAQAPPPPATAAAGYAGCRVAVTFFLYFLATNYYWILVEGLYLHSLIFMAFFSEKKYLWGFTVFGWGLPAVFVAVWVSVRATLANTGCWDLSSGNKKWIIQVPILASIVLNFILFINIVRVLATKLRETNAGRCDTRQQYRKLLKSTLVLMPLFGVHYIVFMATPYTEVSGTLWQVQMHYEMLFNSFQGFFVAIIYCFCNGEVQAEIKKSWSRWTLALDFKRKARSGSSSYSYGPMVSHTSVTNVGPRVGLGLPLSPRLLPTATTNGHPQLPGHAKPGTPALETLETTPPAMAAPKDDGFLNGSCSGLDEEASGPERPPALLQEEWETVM", "assay": "In vitro cAMP signal activity in HKRK-B7 cells (LLC-PK1 cells overexpressing the human PTH1 receptor)", "assay_type": "cell-based", "details": "HKRK-B7 cells; compound at 1×10^−3 M; cAMP produced as percentage of that produced by hPTH(1-34) at 100 nM", "units": {"cAMP production activity (%)": "%"}, "values": [
      {"compound": "CC(=O)Nc1ccc(CCS(=O)(=O)N2CCC3(CC2)N=C(C2CCC(COC(C)C)CC2)NC3=O)c(C)c1", "note": "(stereo not drawn) [Compound 913, N-(4-{2-[2-(4-isopropoxymethyl-cyclohexyl)-4-oxo-1,3,8-triaza-spiro[4.5]dec-1-ene-8-sulfonyl]-ethyl}-3-methyl-phenyl)-acetamide]", "cAMP production activity (%)": 81},
      {"compound": "CC(=O)Nc1ccc(CCS(=O)(=O)N2CCC3(CC2)N=C([C@H]2CC[C@@H](OCCCF)CC2)NC3=O)c(C)c1", "note": "[Compound 914, N-[4-(2-{2-[4-(3-fluoro-propoxy)-cyclohexyl]-4-oxo-1,3,8-triaza-spiro[4.5]dec-1-ene-8-sulfonyl}-ethyl)-3-methyl-phenyl]-acetamide]", "cAMP production activity (%)": 68},
      {"compound": "CC(=O)Nc1ccc(CCS(=O)(=O)N2CCC3(CC2)N=C([C@H]2CC[C@H](OCCCF)CC2)NC3=O)c(C)c1", "note": "[Compound 915, N-[4-(2-{2-[4-(3-fluoro-propoxy)-cyclohexyl]-4-oxo-1,3,8-triaza-spiro[4.5]dec-1-ene-8-sulfonyl}-ethyl)-3-methyl-phenyl]-acetamide]", "cAMP production activity (%)": 61},
      {"compound": "CC(=O)Nc1ccc(CCS(=O)(=O)N2CCC3(CC2)N=C([C@H]2CC[C@H](/C=C/C(F)F)CC2)NC3=O)c(C)c1", "note": "[Compound 916, N-[4-(2-{2-[4-((E)-3,3-difluoro-propenyl)-cyclohexyl]-4-oxo-1,3,8-triaza-spiro[4.5]dec-1-ene-8-sulfonyl}-ethyl)-3-methyl-phenyl]-acetamide]", "cAMP production activity (%)": 59},
      {"compound": "CC(=O)Nc1ccc(CCS(=O)(=O)N2CCC3(CC2)N=C(C2CCCCCC2)NC3=O)c(C)c1", "note": "[Compound 917, N-{4-[2-(2-Cycloheptyl-4-oxo-1,3,8-triaza-spiro[4.5]dec-1-ene-8-sulfonyl)-ethyl]-3-methyl-phenyl}-acetamide]", "cAMP production activity (%)": 69},
      {"compound": "CC(=O)Nc1ccc(CCS(=O)(=O)N2CCC3(CC2)N=C(C24CC5CC(CC(C5)C2)C4)NC3=O)c(C)c1", "note": "[Compound 918, N-{4-[2-(2-adamantan-1-yl-4-oxo-1,3,8-triaza-spiro[4.5]dec-1-ene-8-sulfonyl)-ethyl]-3-methyl-phenyl}-acetamide]", "cAMP production activity (%)": 63},
      {"compound": "CC(=O)Nc1ccc(CCS(=O)(=O)N2CCC3(CC2)N=C(C2CCC(COCC(F)(F)F)CC2)NC3=O)c(C)c1", "note": "(stereo not drawn) [Compound 919, N-[3-methyl-4-(2-{4-oxo-2-[4-(2,2,2-trifluoro-ethoxymethyl)-cyclohexyl]-1,3,8-triaza-spiro[4.5]dec-1-ene-8-sulfonyl}-ethyl)-phenyl]-acetamide]", "cAMP production activity (%)": 68},
      {"compound": "CC(=O)Nc1ccc(CCS(=O)(=O)N2CCC3(CC2)N=C(C2CCC(c4ccc(Cl)cc4)CC2)NC3=O)c(C)c1", "note": "(stereo not drawn) [Compound 920, N-[4-(2-{2-[4-(4-Chloro-phenyl)-cyclohexyl]-4-oxo-1,3,8-triaza-spiro[4.5]dec-1-ene-8-sulfonyl}-ethyl)-3-methyl-phenyl]-acetamide]", "cAMP production activity (%)": 70},
      {"compound": "CC(=O)Nc1ccc(CCS(=O)(=O)N2CCC3(CC2)N=C(C2CCC(OCCC(F)(F)F)CC2)NC3=O)c(C)c1", "note": "(stereo not drawn) [Compound 921, N-[3-methyl-4-(2-{4-oxo-2-[4-(3,3,3-trifluoro-propoxy)-cyclohexyl]-1,3,8-triaza-spiro[4.5]dec-1-ene-8-sulfonyl}-ethyl)-phenyl]-acetamide]", "cAMP production activity (%)": 59},
      {"compound": "CC(=O)Nc1ccc(CCS(=O)(=O)N2CCC3(CC2)N=C([C@H]2CC[C@H](CC(F)(F)F)CC2)NC3=O)c(C)c1", "note": "[Compound 922, N-[3-methyl-4-(2-{4-oxo-2-[4-(2,2,2-trifluoro-ethyl)-cyclohexyl]-1,3,8-triaza-spiro[4.5]dec-1-ene-8-sulfonyl}-ethyl)-phenyl]-acetamide]", "cAMP production activity (%)": 84},
      {"compound": "CCC[C@@H]1CCC[C@H](C2=NC3(CCN(S(=O)(=O)CCc4ccc(NC(C)=O)cc4C)CC3)C(=O)N2)C1", "note": "[Compound 923, N-(3-methyl-4-{2-[4-oxo-2-((1S,3R)-3-propyl-cyclohexyl)-1,3,8-triaza-spiro[4.5]dec-1-ene-8-sulfonyl]-ethyl}-phenyl)-acetamide]", "cAMP production activity (%)": 84},
      {"compound": "CC(=O)Nc1ccc(CCS(=O)(=O)N2CCC3(CC2)N=C([C@H]2CCC[C@@H](C)C2)NC3=O)c(C)c1", "note": "[Compound 924, N-(3-methyl-4-{2-[2-((1S,3R)-3-methyl-cyclohexyl)-4-oxo-1,3,8-triaza-spiro[4.5]dec-1-ene-8-sulfonyl]-ethyl}-phenyl)-acetamide]", "cAMP production activity (%)": 76},
      {"compound": "CC(=O)Nc1ccc(CCS(=O)(=O)N2CCC3(CC2)N=C(C2CCC(C)(C)CC2)NC3=O)c(C)c1", "note": "[Compound 925, N-(4-{2-[2-(4,4-dimethyl-cyclohexyl)-4-oxo-1,3,8-triaza-spiro[4.5]dec-1-ene-8-sulfonyl]-ethyl}-3-methyl-phenyl)-acetamide]", "cAMP production activity (%)": 69},
      {"compound": "CC(=O)Nc1ccc(CCS(=O)(=O)N2CCC3(CC2)N=C(C2CC(C)(C)CC(C)(C)C2)NC3=O)c(C)c1", "note": "[Compound 926, N-(3-methyl-4-{2-[4-oxo-2-(3,3,5,5-tetramethyl-cyclohexyl)-1,3,8-triaza-spiro[4.5]dec-1-ene-8-sulfonyl]-ethyl}-phenyl)-acetamide]", "cAMP production activity (%)": 102},
      {"compound": "COCCC1CCC(C2=NC3(CCN(S(=O)(=O)CCc4ccc(NC(C)=O)cc4C)CC3)C(=O)N2)CC1", "note": "(stereo not drawn) [Compound 927, N-[4-(2-{2-[4-(2-Methoxy-ethyl)-cyclohexyl]-4-oxo-1,3,8-triaza-spiro[4.5]dec-1-ene-8-sulfonyl}-ethyl)-3-methyl-phenyl]-acetamide]", "cAMP production activity (%)": 80},
      {"compound": "Cc1cc(CNC(=O)OC(C)(C)C)ccc1CCS(=O)(=O)N1CCC2(CC1)N=C(C1CCC(CCC(F)(F)F)CC1)NC2=O", "note": "(stereo not drawn) [Compound 928, [3-Methyl-4-(2-{4-oxo-2-[4-(3,3,3-trifluoro-propyl)-cyclohexyl]-1,3,8-triaza-spiro[4.5]dec-1-ene-8-sulfonyl}-ethyl)-benzyl]-carbamic acid tert-butyl ester]", "cAMP production activity (%)": 51},
      {"compound": "Cc1cc(N(CCO)C(=O)C(C)C)ccc1CCS(=O)(=O)N1CCC2(CC1)N=C(c1cccc(OC(F)(F)F)c1)NC2=O", "note": "[Compound 929, N-(2-Hydroxy-ethyl)-N-(3-methyl-4-{2-[4-oxo-2-(3-trifluoromethoxy-phenyl)-1,3,8-triaza-spiro[4.5]dec-1-ene-8-sulfonyl]-ethyl}-phenyl)-isobutylamide]", "cAMP production activity (%)": 76},
      {"compound": "Cc1cc(N(CCO)C(=O)CO)ccc1CCS(=O)(=O)N1CCC2(CC1)N=C(c1cccc(OC(F)(F)F)c1)NC2=O", "note": "[Compound 930, 2-Hydroxy-N-(2-hydroxy-ethyl)-N-(3-methyl-4-{2-[4-oxo-2-(3-trifluoromethoxy-phenyl)-1,3,8-triaza-spiro[4.5]dec-1-ene-8-sulfonyl]-ethyl}-phenyl)-acetamide]", "cAMP production activity (%)": 92},
      {"compound": "Cc1cc(N(C)C(=O)C(F)(F)F)cc(C)c1CCS(=O)(=O)N1CCC2(CC1)N=C([C@H]1CC[C@H](C)CC1)NC2=O", "note": "[Compound 931, N-(3,5-Dimethyl-4-{2-[2-(4-methyl-cyclohexyl)-4-oxo-1,3,8-triaza-spiro[4.5]dec-1-ene-8-sulfonyl]-ethyl}-phenyl)-2,2,2-trifluoro-N-methyl-acetamide]", "cAMP production activity (%)": 72},
      {"compound": "Cc1cc(N(C)C(=O)C(F)(F)F)cc(C)c1CCS(=O)(=O)N1CCC2(CC1)N=C(C1CCCC(C)C1)NC2=O", "note": "(stereo not drawn) [Compound 932, N-(3,5-Dimethyl-4-{2-[2-(3-methyl-cyclohexyl)-4-oxo-1,3,8-triaza-spiro[4.5]dec-1-ene-8-sulfonyl]-ethyl}-phenyl)-2,2,2-trifluoro-N-methyl-acetamide]", "cAMP production activity (%)": 66},
      {"compound": "Cc1cc(N(C)C(=O)C(F)(F)F)cc(C)c1CCS(=O)(=O)N1CCC2(CC1)N=C(C1CC(C)(C)CC(C)(C)C1)NC2=O", "note": "[Compound 933, N-(3,5-dimethyl-4-{2-[4-oxo-2-(3,3,5,5-tetramethyl-cyclohexyl)-1,3,8-triaza-spiro[4.5]dec-1-ene-8-sulfonyl]-ethyl}-phenyl)-2,2,2-trifluoro-N-methyl-acetamide]", "cAMP production activity (%)": 60},
      {"compound": "Cc1cc(N(C)C(N)=O)cc(C)c1CCS(=O)(=O)N1CCC2(CC1)N=C(C1CCCCCC1)NC2=O", "note": "[Compound 934, 1-{4-[2-(2-Cycloheptyl-4-oxo-1,3,8-triaza-spiro[4.5]dec-1-ene-8-sulfonyl)-ethyl]-3,5-dimethyl-phenyl}-1-methyl-urea]", "cAMP production activity (%)": 87},
      {"compound": "Cc1cc(N(C)C(N)=O)cc(C)c1CCS(=O)(=O)N1CCC2(CC1)N=C(c1cccc(OC(F)(F)F)c1)NC2=O", "note": "[Compound 935, 1-(3,5-dimethyl-4-{2-[4-oxo-2-(3-trifluoromethoxy-phenyl)-1,3,8-triaza-spiro[4.5]dec-1-ene-8-sulfonyl]-ethyl}-phenyl)-1-methyl-urea]", "cAMP production activity (%)": 112},
      {"compound": "Cc1cc(N(C)C(N)=O)cc(C)c1CCS(=O)(=O)N1CCC2(CC1)N=C(C1CCC(CC(F)(F)F)CC1)NC2=O", "note": "(stereo not drawn) [Compound 936, 1-[3,5-Dimethyl-4-(2-{4-oxo-2-[4-(2,2,2-trifluoro-ethyl)-cyclohexyl]-1,3,8-triaza-spiro[4.5]dec-1-ene-8-sulfonyl}-ethyl)-phenyl]-1-methyl-urea]", "cAMP production activity (%)": 98}
    ]}
  ]
}
